Experimental data reported in paper PMC11623267, “Inhibitors of malaria parasite cyclic nucleotide phosphodiesterases block asexual blood-stage development and mosquito transmission” (Science Advances, 2024).

Legend:
[1] = test system: P. falciparum mature stage V gametocytes; test: Induction of gametogenesis; type: cell-based, Plasmodium falciparum; settings: 1× IC50, without XA or temperature drop
Protocol: Mature (>90% stage V) gametocytes were exposed to short-term treatment with two of the 5-benzyl series compounds, SAL-0010042 and SAL-0010003. In the absence of any other stressors (drop in temperature, pH increase, and XA), mature gametocytes were treated at 1× IC50 of either compound, and samples were taken at 15, 30, and 60 min. Giemsa-stained slides were prepared at these time points, and the parasite populations were evaluated morphologically using light microscopy. Male and female gametes were identified or distinguished on the basis of rounding up, shape, and size. Statistical evaluation was performed with paired, two-tailed t test (GraphPad Prism 6.0).

[2] = test system: P. falciparum NF54 gametocytes fed to Anopheles stephensi; test: Initial SMFA and sporozoite production; type: in vivo, Plasmodium falciparum; settings: for Oocyst and sporozoite formation: 0.5 and 1 μM
Protocol: P. falciparum NF54 gametocytes were prepared for blood-feeding to mosquitoes according to the method described ([57]), with some slight modifications. Briefly, gametocyte cultures seeded at 2% overall parasitemia and 4% hematocrit were maintained at 37°C for 16 days with daily medium changes. Gametocyte functional viability was assessed by an exflagellation assay at day 14 after induction, observed by light microscopy. Anopheles stephensi (SD500 strain) were reared as described ([58]). Gametocyte aliquots from a single NF54 culture, produced as above, were incubated either with SAL-0010003 or SAL-0010042 in two separate experiments at 100 nM, 500 nM or 1 μM, 1 μM methylene blue (full-block control), or culture medium only (no-drug control) from day 14 to day 16 when SMFA was carried out. Fresh drug-containing medium was provided each day during this exposure. Pots containing 70 to 80 female A. stephensi mosquitoes, aged 2 to 5 days old, were allowed to feed on 500 μl of the respective culture plus drug mixture, presented to each pot in a preheated three-dimensional printed water channel membrane feeder ([59]), until fully fed. Mosquitoes were placed in an incubator at standard conditions. Seven to 8 days after the feed, 10 to 15 mosquitoes were removed and kept under standard conditions for salivary gland dissection on day 14 after feeding. The remaining mosquito midguts were dissected on day […] or day 7, respectively, after the feed in 0.25% mercurochrome stain to determine oocyst counts by light microscopy.

[3] = test system: P. falciparum stage IV/V gametocytes; test: LDH-based gametocyte viability assay; type: cell-based, Plasmodium falciparum; settings: stage IV to V gametocytes
Summary of the method: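 Late gametocytes (>95% stage IV/V) at 2% gametocytemia and 1% hematocrit, exposed to compound in triplicate for 72 h at 37°C, then 75% medium change to drug-free medium and another 72 h. Viability from pLDH activity with Malstat reagent (pH 9) plus PES/NBT, absorbance at 620 nm.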

[4] = test system: P. falciparum stage V gametocytes (male gamete formation); test: Exflagellation (male gamete formation) inhibition assay; type: cell-based, Plasmodium falciparum; settings: for IC50: 48 hours exposure
Summary of the method: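 Mature stage V gametocytes (>95%) treated with compound for 48 h (2 μM single point, or fourfold serial dilutions), then exflagellation induced in ookinete medium with 100 μM XA and 20% human serum, compound still present. Exflagellation centres counted by video microscopy at room temperature between 15 and 22.5 min; IC50 from curves normalised to maximum and minimum inhibition.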

[5] = test system: P. falciparum stage V gametocytes (female gamete formation); test: Female gamete formation inhibition assay; type: cell-based, Plasmodium falciparum; settings: for IC50: 48 hours exposure
Summary of the method: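 P. falciparum gametocytes (>95% stage V) were treated for 48 h with compound at 2 μM or in a fourfold dilution series. Female gamete formation was then triggered by a temperature drop plus 100 μM xanthurenic acid. Gametes were detected with FITC-anti-Pfs25, 30 images per sample were counted manually, and IC50 was fitted after normalisation to maximum and minimum inhibition.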

HepG2 cells = test: HepG2 cytotoxicity; type: cell-based
Text: Table 1. Key activity data for the three main chemical subseries against ABS parasites, parasite fractions, and HepG2 cells. ND, not determined; ×/÷ is the geometric mean with geometric SD. | column: HepG2 EC50 (nM) (selectivity index)

[6] = Plasmodium falciparum, 2 μM, 48 hours

SMILES | Time to stimulate gametogenesis of mature stage V gametocytes [1] | Oocyst and sporozoite formation [2] | % inhibition gametocyte viability at 15 μM [3] | % inhibition of exflagellation at 2 μM ([4]; 2 μM, 48 hours) | IC50 [4] | % inhibition of female gamete formation at 2 μM ([5]; 2 μM, 48 hours) | IC50 [5] | Infection prevalence and intensity ([2]; 100 nM) | inhibition at 2 µM [4, 6] | IC50 ([4]; Plasmodium falciparum) | EC50 (HepG2 cells; Homo sapiens, HepG2) | HepG2 selectivity index (HepG2 cells; value in brackets after HepG2 EC50) | inhibition at 2 µM [5, 6] | IC50 ([5]; Plasmodium falciparum)
CC(C)c1[nH]nc2c(=O)[nH]c(Cc3ccccc3F)nc12 [SAL-0010042] | ≤ 15 min | Few or no oocysts or sporozoites | 99.6 ± 1.3% | 95.4 ± 18.0% | 386 nM | 97.7 ± 0.4% | 238 nM | – | – | – | – | – | – | –
CC(C)c1n[nH]c2c(=O)[nH]c(Cc3ccc(F)cc3F)nc12 [SAL-0010003] | ≤ 15 min | Few or no oocysts or sporozoites | 65.4 ± 20.3% | – | – | – | – | reduced | 88.4 ± 17% | 404 nM | > 25000 nM | > 77 | 71.3 ± 1.5% | 273 nM
